Test results from the NIST ThermoML archive (doi:10.1016/j.jct.2017.01.019).
± gives the expanded uncertainty stated by the source.

Details: Liquid, Closed cell (Static) method

N [ammonia]
vapor or sublimation pressure (243.15 K): 119.7 ± 1.6 kPa | vapor or sublimation pressure (248.15 K): 151.7 ± 1.6 kPa | vapor or sublimation pressure (253.15 K): 190.2 ± 1.6 kPa | vapor or sublimation pressure (258.15 K): 236.4 ± 1.6 kPa | vapor or sublimation pressure (263.15 K): 290.7 ± 1.7 kPa | vapor or sublimation pressure (268.15 K): 354.8 ± 1.7 kPa | vapor or sublimation pressure (273.15 K): 429.3 ± 1.7 kPa | vapor or sublimation pressure (278.15 K): 515.5 ± 1.8 kPa | vapor or sublimation pressure (283.15 K): 615.1 ± 1.8 kPa | vapor or sublimation pressure (288.15 K): 728.5 ± 1.9 kPa | vapor or sublimation pressure (293.15 K): 857.1 ± 2 kPa

FCC(F)(F)F [1,1,1,2-tetrafluoroethane]
vapor or sublimation pressure (243.15 K): 84.5 ± 1.6 kPa | vapor or sublimation pressure (248.15 K): 106.4 ± 1.6 kPa | vapor or sublimation pressure (253.15 K): 132.7 ± 1.6 kPa | vapor or sublimation pressure (258.15 K): 163.9 ± 1.6 kPa | vapor or sublimation pressure (263.15 K): 200.6 ± 1.6 kPa | vapor or sublimation pressure (268.15 K): 243.3 ± 1.6 kPa | vapor or sublimation pressure (273.15 K): 292.7 ± 1.7 kPa | vapor or sublimation pressure (278.15 K): 349.6 ± 1.7 kPa | vapor or sublimation pressure (283.15 K): 414.3 ± 1.7 kPa | vapor or sublimation pressure (288.15 K): 488.2 ± 1.8 kPa | vapor or sublimation pressure (293.15 K): 570.7 ± 1.8 kPa
